According to US11753408B2, “Compounds and method for blocking transmission of malarial parasite” (The United States of America, as represented by the …, priority 2016, dated 2023):
Like-named read-outs stand apart in the source and are kept apart here.

What was measured:
[1] = Solubility at pH 7.4; assay type: physicochemical
[2] = test system: Stage III-V gametocytes (blood stage P. falciparum parasites); test: In vitro drug activity on gametocytes (AlamarBlue viability assay); assay type: cell-based, Plasmodium falciparum; conditions: for EC50: read-out: Gametocyte EC50
Procedure, shortened: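 P. falciparum 3D7 stage III–V gametocytes (also HB3, Dd2), enriched by 50 mM N-acetylglucosamine and Percoll gradient, seeded at 20,000/well with compound for 72 h at 37° C, 5% CO2. AlamarBlue then added for 24 h; viability read as fluorescence (Ex 525, Em 598 nm).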

[3] = Microsomal stability (rat); assay type: in vitro ADME; conditions: rat microsomes
[4] = PAMPA permeability; assay type: in vitro ADME
[5] = test system: Asexual parasites of P. falciparum strain 3D7; test: In vitro drug activity on asexual parasites (SYBR Green assay); assay type: cell-based, Plasmodium falciparum
Procedure, shortened: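 3D7 parasites at 0.5% parasitemia and 2% hematocrit were exposed to drugs (DMSO ≤0.5%) for 72 h under standard culture conditions, in duplicate. After freeze-thaw lysis, SYBR Green I lysis buffer was added for 30 min at room temperature, and fluorescence was read at 490/520 nm.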

[6] = P. falciparum stage III-V gametocytes, 72 h incubation, AlamarBlue
[7] = P. falciparum 3D7 asexual parasites, 72 h, SYBR Green

Structure (SMILES) | Sol @ pH 7.4 (ug/mL) [1] [ug/mL] | Microsomal Stability (rat) T1/2 [3] [min] | PAMPA Permeability (×10^6 cm/s) [4] | EC50 [5, 7] [nM] | Sol @ pH 7.4 [1] [ug/mL] | PAMPA Permeability [4] [×10⁻⁶ cm/s] | EC50 [5] [nM] | EC50 [2, 6] [nM] | Gametocyte EC50 (nM) [2, 6] | EC50 [2] [nM]
CS(=O)(=O)c1ccc(-n2c(=O)ccc3cnc4ccc(-c5ccc(Cl)c(C(=O)O)c5)cc4c32)cc1 [Compound 43] | >74.0 | >30.0 | <1.0 ×10^6 cm/s | 43800 | – | – | – | – | Inactive | –
Cc1cc(-c2ccc3ncc4ccc(=O)n(-c5ccc(S(C)(=O)=O)cc5)c4c3c2)ccc1Cl [Compound 48] | <1.0 | >30.0 | <1.0 ×10^6 cm/s | 200 | – | – | – | 561 | – | –
COC(=O)c1cc(-c2ccc3ncc4ccc(=O)n(-c5ccc(S(C)(=O)=O)cc5)c4c3c2)ccc1Cl [Compound 49] | <1.0 | 4.3 | 235.8 ×10^6 cm/s | 3190 | – | – | – | 1990 | – | –
CN(C)C(=O)c1cc(-c2ccc3ncc4ccc(=O)n(-c5ccc(S(C)(=O)=O)cc5)c4c3c2)ccc1Cl [Compound 50] | 2.7 | 3 | 164.4 ×10^6 cm/s | 932 | – | – | – | 1830 | – | –
CS(=O)(=O)c1ccc(-n2c(=O)ccc3cnc4ccc(-c5ccc(Cl)c(C(N)=O)c5)cc4c32)cc1 [Compound 51] | 4.3 | >30.0 | 43.1 ×10^6 cm/s | 203 | – | – | – | 291 | – | –
CS(=O)(=O)c1ccc(-n2c(=O)ccc3cnc4ccc(-c5ccc(Cl)c(C(=O)N6CCOCC6)c5)cc4c32)cc1 [Compound 52] | 57.2 | <1.0 | 200.8 ×10^6 cm/s | 14700 | – | – | – | 35200 | – | –
CCNC(=O)c1cc(-c2ccc3ncc4ccc(=O)n(-c5ccc(S(C)(=O)=O)cc5)c4c3c2)ccc1Cl [Compound 53] | 9.6 | 2.8 | 115.9 ×10^6 cm/s | 3790 | – | – | – | 6850 | – | –
CN(C)Cc1ccc(-c2ccc3ncc4ccc(=O)n(-c5ccc(S(=O)(=O)NC6CC6)cc5)c4c3c2)cc1 [Compound 57] | 7.9 | >30.0 | 527.8 ×10^6 cm/s | 381 | – | – | – | 840 | – | –
CS(=O)(=O)c1ccc(-n2c(=O)ccc3cnc4ccc(-c5cccc(CN)c5)cc4c32)cc1 [Compound 64] | 1.4 | >30 | <12.3 ×10^6 cm/s | 489 | – | – | – | 1050 | – | –
O=C(c1ccc(-n2c(=O)ccc3cnc4ccc(-c5ccc(Cl)cc5)cc4c32)cc1)N1CCOCC1 [Compound 85] | – | 9 | – | – | <1.0 | 794 | 6.89 | – | – | 77.6
CNC(=O)c1ccc(-n2c(=O)ccc3cnc4ccc(-c5ccc(Cl)cc5)cc4c32)cc1 [Compound 99] | – | 16.9 | – | – | <1.0 | 1050 | 46.7 | – | – | 130
CN(C)Cc1ccc(-c2ccc3ncc4ccc(=O)n(-c5ccc6c(c5)CNC6=O)c4c3c2)cc1 [Compound 340] | >68.0 | >30.0 | 5.2 ×10^6 cm/s | 266 | – | – | – | 616 | – | –
CN(C)Cc1ccc(-c2ccc3ncc4ccc(=O)n(-c5ccc6c(c5)CN(C)C6=O)c4c3c2)cc1 [Compound 347] | >70.0 | >30.0 | 317.6 ×10^6 cm/s | 668 | – | – | – | 1720 | – | –
CCN1Cc2cc(-n3c(=O)ccc4cnc5ccc(-c6ccc(CN(C)C)cc6)cc5c43)ccc2C1=O [Compound 348] | >72.0 | >30.0 | 289.4 ×10^6 cm/s | 1460 | – | – | – | 2450 | – | –
CN(C)Cc1ccc(-c2ccc3ncc4ccc(=O)n(-c5ccc6c(c5)C(=O)NC6)c4c3c2)cc1 [Compound 349] | >68.0 | >30.0 | 2.5 ×10^6 cm/s | 14200 | – | – | – | 26800 | – | –
CN(C)Cc1ccc(-c2ccc3ncc4ccc(=O)n(-c5ccc6c(c5)CN(C5CC5)C6=O)c4c3c2)cc1 [Compound 354] | >74.0 | >30.0 | 292.3 ×10^6 cm/s | 687 | – | – | – | 1910 | – | –
CN(C)Cc1ccc(-c2ccc3ncc4ccc(=O)n(-c5ccc6c(c5)CCC(=O)N6)c4c3c2)cc1 [Compound 357] | >70.00 | >30.00 | 40.53 ×10^6 cm/s | 863 | – | – | – | 2200 | – | –
CN1Cc2cc(-n3c(=O)ccc4cnc5ccc(-c6ccc(F)cc6)cc5c43)ccc2C1=O [Compound 360] | 0.73 | 19.2 | 635.05 ×10^6 cm/s | 170 | – | – | – | 736 | – | –
CCN1Cc2cc(-n3c(=O)ccc4cnc5ccc(-c6ccc(F)cc6)cc5c43)ccc2C1=O [Compound 361] | <0.10 | >30.00 | 199.84 ×10^6 cm/s | 1580 | – | – | – | 6440 | – | –
NC1(c2ccc(-c3ccc4ncc5ccc(=O)n(-c6ccc7c(c6)CNC7=O)c5c4c3)cc2)CCC1 [Compound 368] | 6.5 | >30 | 2.9 ×10^6 cm/s | 1280 | – | – | – | 2200 | – | –

Further lines, with some results ahead:

Sol @ pH 7.4 (ug/mL) [1] [ug/mL] | Microsomal Stability (rat) T1/2 [3] [min] | PAMPA Permeability (×10^6 cm/s) [4] | EC50 [5, 7] [nM] | Sol @ pH 7.4 [1] [ug/mL] | PAMPA Permeability [4] [×10⁻⁶ cm/s] | EC50 [5] [nM] | Structure (SMILES) | EC50 [2, 6] [nM] | Gametocyte EC50 (nM) [2, 6] | EC50 [2] [nM]
<1.0 | >30.0 | <1.0 ×10^6 cm/s | 14.6 | – | – | – | NS(=O)(=O)c1ccc(-n2c(=O)ccc3cnc4ccc(-c5ccc(Cl)cc5)cc4c32)cc1 [Compound 40] | 51.7 | – | –
<1.0 | 4.9 | 97.4 ×10^6 cm/s | 37.4 | – | – | – | CN(C)S(=O)(=O)c1ccc(-n2c(=O)ccc3cnc4ccc(-c5ccc(Cl)cc5)cc4c32)cc1 [Compound 42] | 118 | – | –
<1.0 | 4.6 | 34.8 ×10^6 cm/s | 31.2 | – | – | – | CN(C)C=NS(=O)(=O)c1ccc(-n2c(=O)ccc3cnc4ccc(-c5ccc(Cl)cc5)cc4c32)cc1 [Compound 44] | 135 | – | –
<1.0 | 8.9 | 144.4 ×10^6 cm/s | 77.8 | – | – | – | CS(=O)(=O)c1ccc(-n2c(=O)ccc3cnc4ccc(-c5ccc(Cl)c(N)c5)cc4c32)cc1C(F)(F)F [Compound 45] | 209 | – | –
2.1 | >30.0 | <2.9 ×10^6 cm/s | 66.4 | – | – | – | CS(=O)(=O)c1ccc(-n2c(=O)ccc3cnc4ccc(-c5ccc(CN)cc5)cc4c32)cc1 [Compound 47] | 377 | – | –
<0.10 | 12.8 | <1.00 ×10^6 cm/s | 9.07 | – | – | – | C[S+]([O-])c1ccc(-n2c(=O)ccc3cnc4ccc(-c5ccc(Cl)cc5)cc4c32)cc1 (centres unmarked) [Compound 59] | 25.4 | – | –
<1 | 2.9 | 5.4 ×10^6 cm/s | 43.1 | – | – | – | CS(=O)(=O)c1ccc(-n2c(=O)ccc3cnc4ccc(-c5ccc(C=O)cc5)cc4c32)cc1 [Compound 65] | 461 | – | –
33.6 | >30.0 | <1.0 ×10^6 cm/s | 81.7 | – | – | – | Nc1ccc(-c2ccc3ncc4ccc(=O)n(-c5cccc(S(N)(=O)=O)c5)c4c3c2)cn1 [Compound 77] | 295 | – | –
<1.0 | >30.0 | <11.8 ×10^6 cm/s | 4.76 | – | – | – | CS(=O)(=O)c1ccc(-n2c(=O)ccc3cnc4ccc(-c5ccc(N)nc5)cc4c32)cc1 [Compound 79] | 22.8 | – | –
31.01 | >30.00 | 12.72 ×10^6 cm/s | 130 | – | – | – | CN(C)Cc1ccc(-c2ccc3ncc4ccc(=O)n(-c5ccc6c(c5)CCNC6=O)c4c3c2)cc1 [Compound 342] | 350 | – | –
0.6 | 7.4 | 98.56 ×10^6 cm/s | 8.86 | – | – | – | O=C1NCc2cc(-n3c(=O)ccc4cnc5ccc(-c6ccc(F)cc6)cc5c43)ccc21 [Compound 362] | 81.7 | – | –
